Test results taken from patent US6344487B1, “Treatment of insomnia” (priority 2000, dated 2002).
Structures can show the parent of a compound that is named as a salt.

Assays:
Assay type in all cases: in vivo
Conditions in all cases: single patient
[1] = test system: onset insomnia (non-chronic); assay: Treatment of patient with onset insomnia (non-chronic), follow up
Method: (§1) Administration of the compounds should take place within about one hour before bedtime. Again, the onset of the sedative effect will vary with the individual and the dosage prescribed.
The patient suffers from onset insomnia (non-chronic). At the time of consultation, they have normal affect with no depression, anxiety or substance overuse. They are prescribed mirtazapine 10 mg hs.
The patient suffers from onset insomnia (non-chronic). At the time of consultation, they have normal affect with no depression, anxiety or substance overuse. They are prescribed mirtazapine 7.5 mg hs.
The patient suffers from onset insomnia (non-chronic). At the time of consultation, they have normal affect with no depression, anxiety or substance overuse. They are prescribed mitazapine 5 mg hs.
The patient suffers from onset insomnia (non-chronic). At the time of consultation, they have normal affect with no depression, anxiety or substance overuse. They are prescribed mirtazapine 2 mg hs.
The patient suffers from onset insomnia (non-chronic). At the time of consultation, they have normal affect with no depression, anxiety or substance overuse. They are prescribed nortriptyline 10 mg hs.
The patient suffers from onset insomnia (non-chronic). At the time of consultation, they have normal affect with no depression, anxiety or substance overuse. They are prescribed nortriptyline 7.5 mg hs.
The patient suffers from onset insomnia (non-chronic). At the time of consultation, they have normal affect with no depression, anxiety or substance overuse. They are prescribed nortriptyline 5 mg hs.
The patient suffers from onset insomnia (non-chronic). At the time of consultation, they have normal affect with no depression, anxiety or substance overuse. They are prescribed nortriptyline 2 mg hs.

[2] = test system: maintenance insomnia (non-chronic); assay: Treatment of patient with maintenance insomnia (non-chronic), follow up
Method: as §1
The patient suffers from maintenance insomnia (non-chronic) At the time of consultation, they have normal affect with no depression, anxiety or substance overuse. They are prescribed mirtazapine 10 mg hs.
The patient suffers from maintenance insomnia (non-chronic) At the time of consultation, they have normal affect with no depression, anxiety or substance overuse. They are prescribed mirtazapine 7.5 mg hs.
The patient suffers from maintenance insomnia (non-chronic) At the time of consultation, they have normal affect with no depression, anxiety or substance overuse. They are prescribed mirtazapine 5 mg hs.
The patient suffers from maintenance insomnia (non-chronic) At the time of consultation, they have normal affect with no depression, anxiety or substance overuse. They are prescribed mirtazapine 2 mg hs.
The patient suffers from maintenance insomnia (non-chronic). At the time of consultation, they have normal affect with no depression, anxiety or substance overuse. They are prescribed nortriptyline 10 mg hs.
The patient suffers from maintenance insomnia (non-chronic). At the time of consultation, they have normal affect with no depression, anxiety or substance overuse. They are prescribed nortriptyline 7.5 mg hs.
The patient suffers from maintenance insomnia (non-chronic) At the time of consultation, they have normal affect with no depression, anxiety or substance overuse. They are prescribed nortriptyline 5 mg hs.
The patient suffers from maintenance insomnia (non-chronic) At the time of consultation, they have normal affect with no depression, anxiety or substance overuse. They are prescribed nortriptyline 2 mg hs.

[3] = test system: insomnia, possibly due to a desynchronization of circadian rhythms ("jet-lag"); assay: Treatment of business traveler with insomnia possibly due to desynchronization of circadian rhythms (jet-lag), follow up
Method: as §1
The patient, a business traveler, suffers from insomnia, possibly due to a desynchronization of circadian rhythms (“jet-lag”). At the time of consultation, they have normal affect with no depression, anxiety or substance overuse. They are prescribed mirtazapine 10 mg hs.
The patient, a business traveler, suffers from insomnia, possibly due to a desynchronization of circadian rhythms (“jet-lag”). At the time of consultation, they have normal affect with no depression, anxiety or substance overuse. They are prescribed mirtazapine 7.5 mg hs.
The patient, a business traveler, suffers from insomnia, possibly due to a desynchronization of circadian rhythms (“jet-lag”). At the time of consultation, they have normal affect with no depression, anxiety or substance overuse. They are prescribed mirtazapine 5 mg hs.
The patient, a business traveler, suffers from insomnia, possibly due to a desynchronization of circadian rhythms (“jet-lag”). At the time of consultation, they have normal affect with no depression, anxiety or substance overuse. They are prescribed mirtazapine 2 mg hs.
The patient, a business traveler, suffers from insomnia, possibly due to a desynchronization of circadian rhythms (“jet-lag”). At the time of consultation, they have normal affect with no depression, anxiety or substance overuse. They are prescribed nortriptyline 10 mg hs.
The patient, a business traveler, suffers from insomnia, possibly due to a desynchronization of circadian rhythms (“jet-lag”). At the time of consultation, they have normal affect with no depression, anxiety or substance overuse. They are prescribed nortriptyline 7.5 mg hs.
The patient, a business traveler, suffers from insomnia, possibly due to a desynchronization of circadian rhythms (“jet-lag”). At the time of consultation, they have normal affect with no depression, anxiety or substance overuse. They are prescribed nortriptyline 5 mg hs.
The patient, a business traveler, suffers from insomnia, possibly due to a desynchronization of circadian rhythms (“jet-lag”). At the time of consultation, they have normal affect with no depression, anxiety or substance overuse. They are prescribed nortriptyline 2 mg hs.

[4] = test system: maintenance insomnia (chronic); assay: Treatment of patient with maintenance insomnia (chronic), follow up
Method: as §1
The patient suffers from maintenance insomnia (chronic). At the time of consultation, they have normal affect with no depression, anxiety or substance overuse. They are prescribed mirtazapine 10 mg hs.
The patient suffers from maintenance insomnia (chronic). At the time of consultation, they have normal affect with no depression, anxiety or substance overuse. They are prescribed mirtazapine 7.5 mg hs.
The patient suffers from maintenance insomnia (chronic). At the time of consultation, they have normal affect with no depression, anxiety or substance overuse. They are prescribed mirtazapine 5 mg hs.
The patient suffers from maintenance insomnia (chronic). At the time of consultation, they have normal affect with no depression, anxiety or substance overuse. They are prescribed mirtazapine 2 mg hs.
The patient suffers from maintenance insomnia (chronic). At the time of consultation, they have normal affect with no depression, anxiety or substance overuse. They are prescribed nortriptyline 10 mg hs.
The patient suffers from maintenance insomnia (chronic). At the time of consultation, they have normal affect with no depression, anxiety or substance overuse. They are prescribed nortriptyline 7.5 mg hs.
The patient suffers from maintenance insomnia (chronic). At the time of consultation, they have normal affect with no depression, anxiety or substance overuse. They are prescribed nortriptyline 5 mg hs.
The patient suffers from maintenance insomnia (chronic). At the time of consultation, they have normal affect with no depression, anxiety or substance overuse. They are prescribed nortriptyline 2 mg hs.

[5] = test system: onset insomnia (chronic); assay: Treatment of patient with onset insomnia (chronic), follow up
Method: as §1
The patient suffers from onset insomnia (chronic). At the time of consultation, they have normal affect with no depression, anxiety or substance overuse. They are prescribed mirtazapine 10 mg hs.
The patient suffers from onset insomnia (chronic). At the time of consultation, they have normal affect with no depression, anxiety or substance overuse. They are prescribed mirtazapine 7.5 mg hs.
The patient suffers from onset insomnia (chronic). At the time of consultation, they have normal affect with no depression, anxiety or substance overuse. They are prescribed mitazapine 5 mg hs.
The patient suffers from onset insomnia (chronic). At the time of consultation, they have normal affect with no depression, anxiety or substance overuse. They are prescribed mirtazapine 2 mg hs.
The patient suffers from onset insomnia (chronic). At the time of consultation, they have normal affect with no depression, anxiety or substance overuse. They are prescribed nortriptyline 10 mg hs.
The patient suffers from onset insomnia (chronic). At the time of consultation, they have normal affect with no depression, anxiety or substance overuse. They are prescribed nortriptyline 7.5 mg hs.
The patient suffers from onset insomnia (chronic). At the time of consultation, they have normal affect with no depression, anxiety or substance overuse. They are prescribed nortriptyline 5 mg hs.
The patient suffers from onset insomnia (chronic). At the time of consultation, they have normal affect with no depression, anxiety or substance overuse. They are prescribed nortriptyline 2 mg hs.

| Structure (SMILES) | relief of onset insomnia at follow up ([1]; 2 mg hs) | relief of onset insomnia at follow up ([1]; 5 mg hs) | relief of onset insomnia at follow up ([1]; 7.5 mg hs) | relief of onset insomnia at follow up ([1]; 10 mg hs) | relief of insomnia at follow up ([2]; 2 mg hs) | relief of insomnia at follow up ([2]; 5 mg hs) | relief of insomnia at follow up ([2]; 7.5 mg hs) | relief of insomnia at follow up ([2]; 10 mg hs) | relief of insomnia at follow up ([3]; 2 mg hs) | relief of insomnia at follow up ([3]; 5 mg hs) | relief of insomnia at follow up ([3]; 7.5 mg hs) | relief of insomnia at follow up ([3]; 10 mg hs) | relief of insomnia at follow up ([4]; 2 mg hs) | relief of insomnia at follow up ([4]; 5 mg hs) | relief of insomnia at follow up ([4]; 7.5 mg hs) | relief of insomnia at follow up ([4]; 10 mg hs) | relief of onset insomnia at follow up ([5]; 2 mg hs) | relief of onset insomnia at follow up ([5]; 5 mg hs) | relief of onset insomnia at follow up ([5]; 7.5 mg hs) | relief of onset insomnia at follow up ([5]; 10 mg hs) |
| --- | --- | --- | --- | --- | --- | --- | --- | --- | --- | --- | --- | --- | --- | --- | --- | --- | --- | --- | --- | --- |
| CNCCC=C1c2ccccc2CCc2ccccc21 [nortriptyline, 1 propanamine,3-(10,11-dihydro-5H-dibenzo[a,d]cyclohepten-5-ylidene)-N-methyl-, hydrochloride] | relieves the onset insomnia and has their sleeping well | relieves the onset insomnia and has them sleeping well | relieves the onset insomnia and has them sleeping well | relieves the onset insomnia and has their sleeping well | relieves the insomnia and has their sleeping well | relieves the insomnia and has them sleeping well | relieves the insomnia and has them sleeping well | relieves the insomnia and has their sleeping well | relieves the insomnia and has their sleeping well | relieves the insomnia and has them sleeping well | relieves the insomnia and has them sleeping well | relieves the insomnia and has their sleeping well | relieves the insomnia and has their sleeping well | relieves the insomnia and has them sleeping well | relieves the insomnia and has them sleeping well | relieves the insomnia and has their sleeping well | relieves the onset insomnia and has their sleeping well | relieves the onset insomnia and has them sleeping well | relieves the onset insomnia and has them sleeping well | relieves the onset insomnia and has their sleeping well |
| CN1CCN2c3ncccc3Cc3ccccc3C2C1 (stereo not shown) [mirtazapine, 1,2,3,4,10,14b-hexahydro-2-methylpyrazino [2,1-a]pyrido [2,3-c]benzazepine] | relieves the onset insomnia and has them sleeping well | relieves the onset insomnia and has them sleeping well | relieves the onset insomnia and has them sleeping well | relieves the onset insomnia and has their sleeping well | relieves the insomnia and has them sleeping well | relieves the insomnia and has them sleeping well | relieves the insomnia and has them sleeping well | relieves the insomnia and has their sleeping well | relieves the insomnia and has them sleeping well | relieves the insomnia and has them sleeping well | relieves the insomnia and has them sleeping well | relieves the insomnia and has their sleeping well | relieves the insomnia and has them sleeping well | relieves the insomnia and has them sleeping well | relieves the insomnia and has them sleeping well | relieves the insomnia and has their sleeping well | relieves the onset insomnia and has them sleeping well | relieves the onset insomnia and has them sleeping well | relieves the onset insomnia and has them sleeping well | relieves the onset insomnia and has their sleeping well |
